Each block holds one molecule with its values, some of them ahead of it.
Columns and labels:
Assay type in all cases: physicochemical, human
[1] = LC/MS of serum sample: time from blood collection to centrifugation (Table J); conditions: for Rate of increase or decrease: detection intensity relative to 1 at 15 minutes; for Increase or decrease / Time when compound is affected: serum sample, LC/MS; for Increase or decrease: detection intensity vs 15 minutes from blood collection to centrifugation; for Time when compound is affected: time from blood collection to centrifugation, detection intensity changed by 30% or more vs 15 minutes
Summary of the method: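 Serum from blood centrifuged at room temperature, 3500 rpm, 5 min, then frozen; analysed by LC/MS on a Discovery HS F5-3 column at 40 °C. Mobile phase: 0.1% formic acid in water/acetonitrile, 0.25 mL/min, electrospray MRM. Values are intensity relative to a 15 min collection-to-centrifugation time.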

[2] = LC/MS of blood plasma sample: number of times of freezing and thawing (Table F); conditions: for Rate of increase or decrease: detection intensity relative to 1 at 2 times; for Increase or decrease: detection intensity; for Rate of increase or decrease (second value, decrease) / Rate of increase or decrease (first value, increase): different from individual to individual, relative to 1 at 2 times, freezing and thawing 6 times; for Rate of increase or decrease (second value, decrease): individuals with decrease; for Rate of increase or decrease (first value, increase): individuals with increase
Summary of the method: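 Human blood from a healthy subject drawn into EDTA tubes, cooled to 4° C within 1 min or after ≥5 min, centrifuged at 4° C, 3000 rpm, 15 min. Plasma frozen, then freeze-thawed 2, 4, 6 or 10 times and analysed by LC/MS (ESI, MRM). Intensities expressed relative to 2 freeze-thaw cycles set as 1.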

[3] = LC/MS of serum sample: number of times of freezing and thawing (Table M); design: key to Rate of increase or decrease: detection intensity relative to 1 at 2 freeze-thaw cycles; conditions: for Number of times when compound is affected / Increase or decrease: serum sample, LC/MS; for Number of times when compound is affected: detection intensity changed by 30% or more vs 2 times of freezing and thawing; for Increase or decrease: detection intensity vs 2 times of freezing and thawing
Summary of the method: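 Serum was isolated at room temperature after centrifugation at room temperature, 3500 rpm, 5 minutes, then frozen and freeze-thawed 2, 4, 6 or 10 times. LC/MS used a Discovery HS F5-3 column at 40° C with formic acid water/acetonitrile, electrospray MRM. Intensity is relative to 2 freeze-thaw cycles.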

[4] = LC/MS of serum sample: time from centrifugation to isolation (Table K); design: key to Rate of increase or decrease: detection intensity relative to the 30-minute value set as 1; conditions: for Rate of increase or decrease: detection intensity relative to 1 at 30 minutes; for Increase or decrease / Time when compound is affected: serum sample, LC/MS; for Increase or decrease: detection intensity vs 30 minutes from centrifugation to isolation; for Time when compound is affected: time from centrifugation to isolation, detection intensity changed by 30% or more vs 30 minutes
Summary of the method: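 Serum left at room temperature 30 min, 1 h or 6 h between centrifugation (3500 rpm, 5 min, room temperature) and isolation, then frozen and analysed by LC/MS (Discovery HS F5-3 column, 40° C., 0.1% formic acid water/acetonitrile, electrospray, MRM). Values are detection intensity relative to the 30-min condition set to 1.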

[5] = LC/MS of blood plasma sample: time from blood collection to cooling of blood (Table E); design: key to Rate of increase or decrease / Rate of increase or decrease (first value, increase): detection intensity relative to ≤1 min to cooling = 1; conditions: for Increase or decrease: detection intensity, blood collection to cooling 5 minutes or more vs 1 minute or less; for Rate of increase or decrease (second value, decrease) / Rate of increase or decrease (first value, increase): different from individual to individual, relative to 1 at 1 minute or less, collection to cooling 5 minutes; for Rate of increase or decrease (second value, decrease): individuals with decrease; for Rate of increase or decrease (first value, increase): individuals with increase; for Rate of increase or decrease: detection intensity relative to 1 at 1 minute or less, blood collection to cooling 5 minutes
Procedure: At room temperature, 5 mL of blood from a healthy subject was taken into a blood-collecting vessel containing EDTA, and the blood-collecting vessel was inverted for mixing, then cooled, and allowed to stand at 4° C. Here, in order to investigate how the detection intensity of molecules contained in the sample was affected in a case where the time to cooling was set to 5 minutes or more as compared to that in a case where the time to cooling was set to 1 minute or less, preparations were performed under both the former condition and the latter condition. After standing, the blood sample was subjected to centrifugation under a condition of 4° C., 3000 rpm, and 15 minutes. […] After centrifugation, the blood-collecting vessel was left to stand at room temperature for 30 minutes, and the blood plasma was isolated during this 30 minutes. The obtained blood plasma sample was frozen and stored. Here, in order to investigate how the detection intensity of molecules contained in the sample was affected in cases where freezing and thawing was performed 4 times, 6 times, and 10 times after freezing as compared to that in a case where freezing and thawing was performed 2 times after freezing, freezing and thawing was performed under the respective conditions of 2, 4, 6, and 10 times.
Frozen blood plasma samples and serum samples were subjected to GC/MS or LC/MS. In GC/MS, the blood plasma samples and serum samples were subjected to methoxymation and trimethylsilylation and then introduced to GC-MS.
Analysis column: Discovery HS F5-3 (inner diameter of 2.1 mm, length of 150 mm, film thickness of 3 μm) (Sigma-Aldrich)
Column temperature: 40° C.
(A) 0.1% formic acid (dissolved in water)
(B) 0.1% formic acid (dissolved in acetonitrile)
Flow velocity: 0.25 mL/min
Ionization method: electrospray
Temperature: • Desolvation Line (DL) temperature: 250° C. • Heat block temperature: 400° C. • Interface temperature: 300° C.
Gas flow rate: • Nebulizer gas flow rate: 3.0 L/min • Drying gas flow rate: 10.0 L/min • Heating gas flow rate: 10.0 L/min
Mode: multiple reaction monitoring (MRM)
The rate of increase or decrease in Table E is the value of detection intensity relative to 1 that is the detection intensity in a case where the time from blood collection to cooling is set to 1 minute or less.

[6] = LC/MS of blood plasma sample: time from blood collection to centrifugation (Table D); conditions: blood collection to centrifugation; for Rate of increase or decrease: detection intensity relative to 1 at 15 minutes; for Increase or decrease: detection intensity
Summary of the method: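 Healthy-subject blood (5 mL, EDTA) cooled and held at 4 °C before centrifugation (4 °C, 3000 rpm, 15 min), with plasma then frozen. LC/MS on Discovery HS F5-3 column at 40 °C, 0.1% formic acid water/acetonitrile, 0.25 mL/min, electrospray, MRM; intensities relative to 15 min collection-to-centrifugation set as 1.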

[7] = after 4 hours from blood collection to centrifugation
[8] = freezing and thawing 4 times vs 2 times
[9] = after 1 hour from centrifugation to isolation
[10] = freezing and thawing 6 times vs 2 times
[11] = 4 times of freezing and thawing, detection intensity relative to 1 at 2 times
[12] = after 6 hours from centrifugation to isolation
[13] = 10 times of freezing and thawing, detection intensity relative to 1 at 2 times

Structure (SMILES): OC[C@H]1O[C@@H](n2cnc3c(O)ncnc32)[C@H](O)[C@@H]1O [Inosine]
Rate of increase or decrease [1, 7]: 0.17
Increase or decrease [1]: Decrease
Time when compound is affected [1]: After 4 hours
Increase or decrease [2, 10]: Different from individual
Rate of increase or decrease (second value, decrease) [2]: 0.53
Rate of increase or decrease (first value, increase) [2]: 1.67
Rate of increase or decrease [3, 11]: 1.44
Number of times when compound is affected [3]: 4 times
Increase or decrease [3]: Increase
Rate of increase or decrease [4, 9]: 0.61
Increase or decrease [4]: Decrease
Time when compound is affected [4]: After 1 hour hours
Increase or decrease [5]: Different from individual
Rate of increase or decrease (second value, decrease) [5]: 0.64
Rate of increase or decrease (first value, increase) [5]: 18.25
Rate of increase or decrease ([6]; after 4 hours): 2.26
Increase or decrease ([6]; after 4 hours vs 15 minutes): Increase

Structure (SMILES): N[C@@H](CS)C(=O)O [Cysteine]
Rate of increase or decrease ([1]; after 6 hours from blood collection to centrifugation): 1.39
Increase or decrease [1]: Increase
Time when compound is affected [1]: After 6 hours
Rate of increase or decrease ([2]; freezing and thawing 4 times): 1.99
Increase or decrease [2, 8]: Increase
Rate of increase or decrease [3, 11]: 1.37
Number of times when compound is affected [3]: 4 times
Increase or decrease [3]: Increase
Rate of increase or decrease [4, 12]: 0.61
Increase or decrease [4]: Decrease
Time when compound is affected [4]: After 6 hours
Rate of increase or decrease [5]: 1.67
Increase or decrease [5]: Increase
Rate of increase or decrease ([6]; after 4 hours): 1.33
Increase or decrease ([6]; after 4 hours vs 15 minutes): Increase

Structure (SMILES): N[C@@H](CC(=O)O)C(=O)O [Aspartic acid]
Rate of increase or decrease [1, 7]: 2.10
Increase or decrease [1]: Increase
Time when compound is affected [1]: After 4 hours
Rate of increase or decrease ([2]; freezing and thawing 10 times): 1.76
Increase or decrease ([2]; freezing and thawing 10 times vs 2 times): Increase
Rate of increase or decrease [3, 13]: 0.53
Number of times when compound is affected [3]: 10 times
Increase or decrease [3]: Decrease
Rate of increase or decrease [4, 12]: 2.40
Increase or decrease [4]: Increase
Time when compound is affected [4]: After 6 hours
Rate of increase or decrease [5]: 1.93
Increase or decrease [5]: Increase
Rate of increase or decrease ([6]; after 6 hours): 1.46
Increase or decrease ([6]; after 6 hours vs 15 minutes): Increase

Structure (SMILES): Nc1ccn([C@@H]2O[C@H](CO)[C@@H](O)[C@H]2O)c(=O)n1 [Cytidine]
Rate of increase or decrease [1, 7]: 0.62
Increase or decrease [1]: Decrease
Time when compound is affected [1]: After 4 hours
Increase or decrease [2, 10]: Different from individual
Rate of increase or decrease (second value, decrease) [2]: 0.30
Rate of increase or decrease (first value, increase) [2]: 1.54
Rate of increase or decrease [3, 11]: 1.52
Number of times when compound is affected [3]: 4 times
Increase or decrease [3]: Increase
Rate of increase or decrease [4, 9]: 0.70
Increase or decrease [4]: Decrease
Time when compound is affected [4]: After 1 hour hours
Increase or decrease [5]: Different from individual
Rate of increase or decrease (second value, decrease) [5]: 0.46
Rate of increase or decrease (first value, increase) [5]: 2.56
Rate of increase or decrease ([6]; after 4 hours): 1.95
Increase or decrease ([6]; after 4 hours vs 15 minutes): Increase

The remaining lines, values ahead:

Rate of increase or decrease [1, 7]: 2.82
Increase or decrease [1]: Increase
Time when compound is affected [1]: After 4 hours
Rate of increase or decrease ([2]; freezing and thawing 4 times): 2.09
Increase or decrease [2, 8]: Increase
Rate of increase or decrease ([3]; 6 times of freezing and thawing, relative to 1 at 2 times, different from individual to individual, first value (increase)): 1.62
Rate of increase or decrease ([3]; 6 times of freezing and thawing, relative to 1 at 2 times, different from individual to individual, second value (decrease)): 0.49
Number of times when compound is affected [3]: 6 times
Increase or decrease [3]: Different from individual
Rate of increase or decrease [4, 9]: 1.51
Increase or decrease [4]: Increase
Time when compound is affected [4]: After 1 hour hours
Increase or decrease [5]: Different from individual
Rate of increase or decrease (second value, decrease) [5]: 0.49
Rate of increase or decrease (first value, increase) [5]: 1.40
Rate of increase or decrease ([6]; after 4 hours): 0.66
Increase or decrease ([6]; after 4 hours vs 15 minutes): Decrease
Structure (SMILES): Nc1ncnc2c1ncn2[C@@H]1O[C@H](CSCC[C@H](N)C(=O)O)[C@@H](O)[C@H]1O [S-adenosylhomocysteine]

Increase or decrease [2, 10]: Different from individual
Rate of increase or decrease (second value, decrease) [2]: 0.68
Rate of increase or decrease (first value, increase) [2]: 1.57
Rate of increase or decrease [3, 13]: 0.65
Number of times when compound is affected [3]: 10 times
Increase or decrease [3]: Decrease
Rate of increase or decrease [4, 9]: 0.52
Increase or decrease [4]: Decrease
Time when compound is affected [4]: After 1 hour hours
Increase or decrease [5]: Different from individual
Rate of increase or decrease (second value, decrease) [5]: 0.63
Rate of increase or decrease (first value, increase) [5]: 1.62
Rate of increase or decrease ([6]; after 4 hours): 2.95
Increase or decrease ([6]; after 4 hours vs 15 minutes): Increase
Structure (SMILES): NCCc1c[nH]c2ccc(O)cc12 [Serotonin]

Reference: US20220146526A1, “METHOD FOR EVALUATING SAMPLE, ANALYSIS METHOD, METHOD FOR DETECTING DEGRADED SAMPLE, MARKER FOR DETECTING DEGRADED BLOOD PLASMA SAMPLE, AND MARKER FOR DETECTING DEGRADED SERUM SAMPLE” (SHIMADZU CORPORATION, priority 2019, published 2022)
